Laboratory results published in patent US10757941B2, “Microbiocidal oxadiazole derivatives” (SYNGENTA PARTICIPATIONS AG, priority 2016, dated 2020).

How the values were obtained:
[1] = system: Glomerella lagenarium (Colletotrichum lagenarium); test: Fungicidal activity against Glomerella lagenarium (Colletotrichum lagenarium) liquid culture / cucumber / preventative (anthracnose); assay type: cell-based; settings: Colletotrichum orbiculare; 20 ppm in the applied formulation; liquid culture in PDB, 24° C.; inhibition of growth measured photometrically 3 to 4 days after application; compared to untreated; read-out: disease control
Method: Mycelia fragments or conidia suspensions of a fungus prepared either freshly from liquid cultures of the fungus or from cryogenic storage, are directly mixed into nutrient broth. DMSO solutions of the test compound (max. 10 mg/ml) are diluted with 0.025% Tween20 by a factor of 50 and 10 μl of this solution is pipetted into a microtiter plate (96-well format). The nutrient broth containing the fungal spores/mycelia fragments is then added to give an end concentration of the tested compound. The test plates are incubated in the dark at 24° C. and 96% relative humidity. The inhibition of fungal growth is determined photometrically after 2 to 7 days, depending on the pathosystem, and percent antifungal activity relative to the untreated check is calculated. Example 4: Fungicidal Activity Against Glomerella lagenarium (Colletotrichum lagenarium) Liquid Culture/Cucumber/Preventative (Anthracnose) Conidia of the fungus from cryogenic storage are directly mixed into nutrient broth (PDB—potato dextrose broth). After placing a (DMSO) solution of test compound into a microtiter plate (96-well format), the nutrient broth containing the fungal spores is added. The test plates are incubated at 24° C. and the inhibition of growth is measured photometrically 3 to 4 days after application. The following compounds at 20 ppm in the applied formulation give at least 80% disease control in this test when compared to untreated control under the same conditions, which show extensive disease development.

Uromyces viciae-fabael = test: Fungicidal activity against Uromyces viciae-fabae / field bean / leaf disc preventative (faba-bean rust); assay type: in vivo; settings: foliar, 288 h, 100 ppm in the applied formulation, field bean leaf discs, preventative (inoculated two hours after application), assessed 12 days after application, compared to untreated, read-out: disease control
Method: Leaf disks or leaf segments of various plant species are cut from plants grown in a greenhouse. The cut leaf disks or segments are placed in multiwell plates (24-well format) onto water agar. The leaf disks are sprayed with a test solution before (preventative) or after (curative) inoculation. Compounds to be tested are prepared as DMSO solutions (max. 10 mg/ml) which are diluted to the appropriate concentration with 0.025% Tween20 just before spraying. The inoculated leaf disks or segments are incubated under defined conditions (temperature, relative humidity, light, etc.) according to the respective test system. A single evaluation of disease level is carried out 3 to 14 days after inoculation, depending on the pathosystem. Percent disease control relative to the untreated check leaf disks or segments is then calculated. Example 5: Fungicidal Activity Against Uromyces viciae-fabael Field Bean/Leaf Disc Preventative (Faba-Bean Rust) Field bean leaf discs are placed on water agar in multiwell plates (96-well format) and 10 μl of the formulated test compound diluted in acetone and a spreader pipetted onto the leaf disc. Two hours after application leaf discs are inoculated by spraying a spore suspension on the lower leaf surface. The leaf discs are incubated in a climate cabinet at 22° C. with 18 hour day and 70% relative humidity. The activity of a compound is assessed as percent disease control compared to untreated when an appropriate level of disease damage appears in untreated check leaf disks (12 days after application). The following compounds at 100 ppm in the applied formulation give at least 80% disease control in this test when compared to untreated control leaf discs under the same conditions, which show extensive disease development.

[2] = system: Puccinia recondita f. Sp. Tritici; test: Fungicidal activity against Puccinia recondita f. sp. tritici / wheat / leaf disc curative (brown rust); assay type: in vivo; settings: foliar, 200 ppm in the applied formulation, wheat leaf segments cv. Kanzler, curative (applied 1 day after inoculation), assessed 6 to 8 days after application, compared to untreated, read-out: disease control
Method: Leaf disks or leaf segments of various plant species are cut from plants grown in a greenhouse. The cut leaf disks or segments are placed in multiwell plates (24-well format) onto water agar. The leaf disks are sprayed with a test solution before (preventative) or after (curative) inoculation. Compounds to be tested are prepared as DMSO solutions (max. 10 mg/ml) which are diluted to the appropriate concentration with 0.025% Tween20 just before spraying. The inoculated leaf disks or segments are incubated under defined conditions (temperature, relative humidity, light, etc.) according to the respective test system. A single evaluation of disease level is carried out 3 to 14 days after inoculation, depending on the pathosystem. Percent disease control relative to the untreated check leaf disks or segments is then calculated. Example 2: Fungicidal Activity Against Puccinia recondita f. Sp. Tritici/Wheat/Leaf Disc Curative (Brown Rust) Wheat leaf segments cv. Kanzler are placed on agar in multiwell plates (24-well format). The leaf segments are then inoculated with a spore suspension of the fungus. Plates were stored in darkness at 19° C. and 75% relative humidity. The formulated test compound diluted in water was applied 1 day after inoculation. The leaf segments were incubated at 19° C. and 75% relative humidity under a light regime of 12 hours light/12 hours darkness in a climate cabinet and the activity of a compound was assessed as percent disease control compared to untreated when an appropriate level of disease damage appears in untreated check leaf segments (6 to 8 days after application). The following compounds at 200 ppm in the applied formulation give at least 80% disease control in this test when compared to untreated control leaf disks under the same conditions, which show extensive disease development.

[3] = system: Puccinia recondita f. Sp. Tritici; test: Fungicidal activity against Puccinia recondita f. sp. tritici / wheat / leaf disc preventative (brown rust); assay type: in vivo; settings: foliar, 200 ppm in the applied formulation, wheat leaf segments cv. Kanzler, preventative (inoculated 1 day after application), assessed 7 to 9 days after application, compared to untreated, read-out: disease control
Method: Leaf disks or leaf segments of various plant species are cut from plants grown in a greenhouse. The cut leaf disks or segments are placed in multiwell plates (24-well format) onto water agar. The leaf disks are sprayed with a test solution before (preventative) or after (curative) inoculation. Compounds to be tested are prepared as DMSO solutions (max. 10 mg/ml) which are diluted to the appropriate concentration with 0.025% Tween20 just before spraying. The inoculated leaf disks or segments are incubated under defined conditions (temperature, relative humidity, light, etc.) according to the respective test system. A single evaluation of disease level is carried out 3 to 14 days after inoculation, depending on the pathosystem. Percent disease control relative to the untreated check leaf disks or segments is then calculated. Example 1: Fungicidal Activity Against Puccinia recondita f. Sp. Tritici/Wheat/Leaf Disc Preventative (Brown Rust) Wheat leaf segments cv. Kanzler were placed on agar in multiwell plates (24-well format) and sprayed with the formulated test compound diluted in water. The leaf disks were inoculated with a spore suspension of the fungus 1 day after application. The inoculated leaf segments were incubated at 19° C. and 75% relative humidity (rh) under a light regime of 12 hours light/12 hours darkness in a climate cabinet and the activity of a compound was assessed as percent disease control compared to untreated when an appropriate level of disease damage appears in untreated check leaf segments (7 to 9 days after application). The following compounds at 200 ppm in the applied formulation give at least 80% disease control in this test when compared to untreated control leaf disks under the same conditions, which show extensive disease development.

Phakopsora pachyrhizi = test: Fungicidal activity against Phakopsora pachyrhizi / soybean / leaf disc preventative (Asian soybean rust); assay type: in vivo; settings: foliar, 200 ppm in the applied formulation, soybean leaf disks, preventative (inoculated one day after application), assessed 12 to 14 days after application, compared to untreated, read-out: disease control
Method: Leaf disks or leaf segments of various plant species are cut from plants grown in a greenhouse. The cut leaf disks or segments are placed in multiwell plates (24-well format) onto water agar. The leaf disks are sprayed with a test solution before (preventative) or after (curative) inoculation. Compounds to be tested are prepared as DMSO solutions (max. 10 mg/ml) which are diluted to the appropriate concentration with 0.025% Tween20 just before spraying. The inoculated leaf disks or segments are incubated under defined conditions (temperature, relative humidity, light, etc.) according to the respective test system. A single evaluation of disease level is carried out 3 to 14 days after inoculation, depending on the pathosystem. Percent disease control relative to the untreated check leaf disks or segments is then calculated. Example 3: Fungicidal Activity Against Phakopsora pachyrhizi/Soybean/Leaf Disc Preventative (Asian Soybean Rust) Soybean leaf disks are placed on water agar in multiwell plates (24-well format) and sprayed with the formulated test compound diluted in water. One day after application leaf discs are inoculated by spraying a spore suspension on the lower leaf surface. After an incubation period in a climate cabinet of 24-36 hours in darkness at 20° C. and 75% rh leaf disc are kept at 20° C. with 12 h light/day and 75% rh. The activity of a compound is assessed as percent disease control compared to untreated when an appropriate level of disease damage appears in untreated check leaf disks (12 to 14 days after application). The following compounds at 200 ppm in the applied formulation give at least 80% disease control in this test when compared to untreated control leaf disks under the same conditions, which show extensive disease development.

CN(C(=O)c1ccc(-c2noc(C(F)(F)F)n2)c(F)c1)C1CCN(C(=O)OC(C)(C)C)C1 (stereo not shown) [Compound 1.2, tert-butyl 3-[[3-fluoro-4-[5-(trifluoromethyl)-1,2,4-oxadiazol-3-yl]benzoyl]-methyl-amino]pyrrolidine-1-carboxylate]
≥ 80%: inhibition of growth at 20 ppm [1] | pest or weed control at 100 ppm (Uromyces viciae-fabael) | pest or weed control at 200 ppm [2] | pest or weed control at 200 ppm [3]

CN(C(=O)c1ccc(-c2noc(C(F)(F)F)n2)c(F)c1)c1ccccn1 [Compound 1.5, 3-fluoro-N-methyl-N-(2-pyridyl)-4-[5-(trifluoromethyl)-1,2,4-oxadiazol-3-yl]benzamide]
≥ 80%: inhibition of growth at 20 ppm [1] | pest or weed control at 200 ppm [2] | pest or weed control at 200 ppm [3]

O=C(NCC1COCCO1)c1ccc(-c2noc(C(F)(F)F)n2)c(F)c1 (stereo not shown) [Compound 1.12, N-(1,4-dioxan-2-ylmethyl)-3-fluoro-4-[5-(trifluoromethyl)-1,2,4-oxadiazol-3-yl]benzamide]
≥ 80%: inhibition of growth at 20 ppm [1] | pest or weed control at 100 ppm (Uromyces viciae-fabael) | pest or weed control at 200 ppm (Phakopsora pachyrhizi) | pest or weed control at 200 ppm [2] | pest or weed control at 200 ppm [3]

O=C(NCC1CCOC1)c1ccc(-c2noc(C(F)(F)F)n2)c(F)c1 (stereo not shown) [Compound 1.14, 3-fluoro-N-(tetrahydrofuran-3-ylmethyl)-4-[5-(trifluoromethyl)-1,2,4-oxadiazol-3-yl]benzamide]
≥ 80%: inhibition of growth at 20 ppm [1] | pest or weed control at 100 ppm (Uromyces viciae-fabael) | pest or weed control at 200 ppm (Phakopsora pachyrhizi) | pest or weed control at 200 ppm [2] | pest or weed control at 200 ppm [3]

COCCN(Cc1ccccc1)C(=O)c1ccc(-c2noc(C(F)(F)F)n2)c(F)c1 [Compound 1.16, N-benzyl-3-fluoro-N-(2-methoxyethyl)-4-[5-(trifluoromethyl)-1,2,4-oxadiazol-3-yl]benzamide]
≥ 80%: inhibition of growth at 20 ppm [1] | pest or weed control at 100 ppm (Uromyces viciae-fabael) | pest or weed control at 200 ppm (Phakopsora pachyrhizi) | pest or weed control at 200 ppm [2] | pest or weed control at 200 ppm [3]

O=C(NCC1CC1)c1ccc(-c2noc(C(F)(F)F)n2)c(F)c1 [Compound 1.20, N-(cyclo-propylmethyl)-3-fluoro-4-[5-(trifluoromethyl)-1,2,4-oxadiazol-3-yl]benzamide]
≥ 80%: inhibition of growth at 20 ppm [1] | pest or weed control at 200 ppm (Phakopsora pachyrhizi) | pest or weed control at 200 ppm [2] | pest or weed control at 200 ppm [3]

CC(NC(=O)c1ccc(-c2noc(C(F)(F)F)n2)c(F)c1)C1CC1 (stereo not shown) [Compound 1.25, N-(1-cyclopropylethyl)-3-fluoro-4-[5-(trifluoromethyl)-1,2,4-oxadiazol-3-yl]benzamide]
≥ 80%: inhibition of growth at 20 ppm [1] | pest or weed control at 100 ppm (Uromyces viciae-fabael) | pest or weed control at 200 ppm (Phakopsora pachyrhizi) | pest or weed control at 200 ppm [2] | pest or weed control at 200 ppm [3]

O=C(NC1(C2CC2)CC1)c1ccc(-c2noc(C(F)(F)F)n2)c(F)c1 [Compound 1.27, N-(1-cyclopropyl-cyclopropyl)-3-fluoro-4-[5-(trifluoromethyl)-1,2,4-oxadiazol-3-yl]benzamide]
≥ 80%: inhibition of growth at 20 ppm [1] | pest or weed control at 100 ppm (Uromyces viciae-fabael) | pest or weed control at 200 ppm (Phakopsora pachyrhizi) | pest or weed control at 200 ppm [2] | pest or weed control at 200 ppm [3]

CCCN(CC1CC1)C(=O)c1ccc(-c2noc(C(F)(F)F)n2)c(F)c1 [Compound 1.41, N-(cyclopropyl-methyl)-3-fluoro-N-propyl-4-[5-(trifluoromethyl)-1,2,4-oxadiazol-3-yl]benzamide]
≥ 80%: inhibition of growth at 20 ppm [1] | pest or weed control at 100 ppm (Uromyces viciae-fabael) | pest or weed control at 200 ppm (Phakopsora pachyrhizi) | pest or weed control at 200 ppm [2]

O=C(Nc1nccnn1)c1ccc(-c2noc(C(F)(F)F)n2)c(F)c1 [Compound 1.42, 3-fluoro-N-(1,2,4-triazin-3-yl)-4-[5-(trifluoromethyl)-1,2,4-oxadiazol-3-yl]benzamide]
≥ 80%: inhibition of growth at 20 ppm [1] | pest or weed control at 200 ppm [2] | pest or weed control at 200 ppm [3]
